Measurements as given in article PMC7252524 (Journal of medicinal chemistry, 2019).

Test: Mouse PK analysis, large intestine
Format: in vivo

Row | Large Intestinal PK AUClast (ip, 10 mg/kg) | Large Intestinal PK AUClast (iv, 10 mg/kg) | Large Intestinal PK AUClast (iv, 5 mg/kg) | Large Intestinal PK AUClast (po, 20 mg/kg) | SMILES
1 | 737,709 ng·min/g | – | – | – | COc1ccc(S(=O)(=O)N2CCC(N3CCC(C)CC3)CC2)cc1 [compound 6, 1’-((4-Methoxyphenyl)sulfonyl)-4-methyl-1,4’-bipiperidine]
2 | – | 262,874 ng·min/g | – | – | CC1CCN(C2CCN(S(=O)(=O)c3ccc(Cl)cc3)CC2)CC1 [compound 16, 1’-((4-Chlorophenyl)sulfonyl)-4-methyl-1,4’-bipiperidine]
3 | 790,425 ng·min/g | – | 511,878 ng·min/g | 890,969 ng·min/g | CC1CCN(C2CCN(S(=O)(=O)c3ccc(OC(F)F)cc3)CC2)CC1 [compound 22, 1’-((4-(Difluoromethoxy)phenyl)sulfonyl)-4-methyl-1,4’-bipiperidine]
4 | 633,289 ng·min/g | 559,037 ng·min/g | – | – | C#CCC1CCN(C2CCN(S(=O)(=O)c3ccc(Br)cc3)CC2)CC1 [compound 92, 1’-((4-Bromophenyl)sulfonyl)-4-(prop-2-yn-1-yl)-1,4’-bipiperidine]
